Laboratory results taken from publication PMC9947563, “Identification of the molecular determinants of antagonist potency in the allosteric binding pocket of human P2X4” (Frontiers in Pharmacology, 2023).
Positions count from the first letter of the chain named.

Key:
[1] = biological target: T1, human P2X4 I312T (h4-I312T) (Homo sapiens, UniProt Q99571, I312T); experiment: ATP-induced calcium influx (Fluo-4) in 1321N1 cells stably expressing human P2X4 I312T; assay type: cell-based
T1 construct: expressed in transfected cells; host or cells: 1321N1 astrocytoma cells, stably transfected
T1 sequence (Q99571 1-388 I312T): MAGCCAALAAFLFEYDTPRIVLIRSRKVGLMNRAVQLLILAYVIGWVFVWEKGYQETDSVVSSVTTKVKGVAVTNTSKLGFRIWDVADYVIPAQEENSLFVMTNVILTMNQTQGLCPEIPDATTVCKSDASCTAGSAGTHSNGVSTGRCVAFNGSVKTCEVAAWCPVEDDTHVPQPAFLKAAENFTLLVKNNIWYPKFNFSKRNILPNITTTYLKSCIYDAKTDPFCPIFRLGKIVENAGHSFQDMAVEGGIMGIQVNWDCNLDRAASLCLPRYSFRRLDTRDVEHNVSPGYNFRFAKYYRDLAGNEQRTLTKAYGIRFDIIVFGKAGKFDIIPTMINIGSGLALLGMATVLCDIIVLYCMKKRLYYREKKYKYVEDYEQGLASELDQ
Procedure: Plasmid encoding rat P2X4 (r4-WT) ([Royle et al., 2005]) was a kind gift from Ruth Murrell-Lagnado, whilst that encoding human P2X4 with a C-terminal (His)10 tag has been reported previously ([Young et al., 2008]).
(§1) 1321N1 astrocytoma cells were cultured (at 37°C, 5% CO2) in Dulbecco’s modified Eagle’s medium (DMEM/F-12 with Glutamax) supplemented with 10% foetal bovine serum (FBS) and 200 unit/mL of penicillin and streptomycin antibiotics (Fisher Scientific). Stably transfected clones were grown in DMEM/F-12 with Glutamax medium supplemented with G-418 (Geneticin®, Fisher Scientific), 600 μg/mL and 150 μg/mL during selection and maintenance, respectively. […] Each cell line was then tested for P2X4 receptor expression by Western blot and for functionality using the Ca^2+ influx assay.
(§2) Cells were plated the day before assay into poly-lysine-coated 96-well plates at 40–55,000 cells/mL. […] Prior to assay, buffer was replaced with fresh modified Ringer’s buffer containing probenecid but not the dye. […] A Fluoroskan Ascent FL plate reader (Fisher Scientific) equipped with a solution dispenser and an appropriate filter pair (excitation: 485 nm, emission: 538 nm) was used to record 5-s baseline followed by P2X4-mediated calcium influx measurements for 20–25 s after ATP stimulation (final concentration ranging between 0.03 and 100 μM in buffered solution, pH = 7.4). The collected responses were normalized to the first data-point recorded after ATP injection.
(§3) Data processing and data analysis were carried out using Graphpad Prism version 6 for Mac. Figures are presented as Mean ± SEM. […] When comparing data obtained from multiple independent experiments (N), each dataset was normalized to the mean value obtained for the vehicle control.

[2] = test system: human P2X4 open channel; set-up: method as in Bidula et al. (2022); details: ref Bidula et al. (2022); cited from earlier work
[3] = biological target: T2, human P2X4 wild type (h4-WT) (Homo sapiens, UniProt Q99571); experiment: ATP-induced calcium influx (Fluo-4) in 1321N1 cells stably expressing human P2X4 wild type; assay type: cell-based; details: human vs rat P2X4
T2 construct: expressed in transfected cells; host or cells: 1321N1 astrocytoma cells, stably transfected
T2 sequence (Q99571 1-388): T1 sequence (Q99571 1-388 I312T) with T312I
Procedure: as §1, §2, §3

[4] = test system: mP2X4; details: ref Ase et al. (2015); read-out: mP2X4 IC50; cited from earlier work

## CC(C)c1cc(Br)c(NC(=O)Nc2cccnc2)c(Br)c1 [BX430]
[1]; human P2X4 I312T vs human P2X4 WT
  decrease in BX-430 potency by I312T mutation in human P2X4: > 48 fold
[1]; human P2X4 I312T, 1 µM ATP
  Hill coefficient (BX-430 inhibition curve): 2.057
[2]
  capability of blocking the open channel: capable of blocking the open channel
[3]
  potency at human P2X4 compared with the rat isoform: approximately 30 fold
[4]
  IC50: > 10 µM
